Measurements reported in patent US12428394B2, “2,4-disubstituted pyrimidine derivative, preparation method therefor and use thereof” (CHENGDU ZENITAR BIOMEDICAL TECHNOLOGY CO., LTD., priority 2019, dated 2025).

Experiments:
[1] = test system: MV4-11 cells (FLT3-ITD+/+); test: Inhibition of cell proliferation by MTT experiment, MV4-11; assay type: cell-based, human; settings: Homo sapiens, MV4-11; MTT, 72 h; read-out: IC50 value on cell proliferation inhibition, MV4-11 FLT3-ITD+/+
From the text: (§1) MV4-11, MOLM-13 and SET-2 were used to determine the influence of the test compound of the present invention on the activity of cancer cells. MV4-11 and MOLM-13 were human leukemia cell lines from American Type Culture Collection (ATCC), expressing FLT3 receptor and containing FLT3-ITD mutation; and SET-2 was a primary thrombocythemia cell purchased from Chengdu Bowerston Biotechnology Co., Ltd., China, continuously expressing JAK2 receptor and containing the mutation of V617F.
(§2) MV4-11, MOLM-13 and SET-2 cells were filled in a 96-well petri dish with 100 μL IMDM as the medium, containing 10% fetal bovine serum (100 mL/bottle, purchased from Grassland Lvye Bio-Engineering Materials Co., Ltd. and cryopreserved at −20° C.), and with 10,000-15,000 cells in each well. […] In each group, 3-5 replicate wells were set and incubated in 5% CO2 at 37° C. for 72 h. At the endpoint, 20 μL MTT (5 mg/mL) was added to each well, and the cells were incubated for another 1-3 h.
(§3) After the inhibition rate of each concentration of compound on cell proliferation activity was calculated, the dose-response curve and IC50 value were fitted by Graphpad prism software according to the compound treatment concentrations and corresponding inhibition rates.

[2] = test system: MOLM-13 cells (FLT3-ITD-/+); test: Inhibition of cell proliferation by MTT experiment, MOLM-13; assay type: cell-based, human; settings: Homo sapiens, MOLM-13; MTT, 72 h; read-out: IC50 value on cell proliferation inhibition, MOLM-13 FLT3-ITD-/+
From the text: as §1, §2, §3

[3] = molecular target: T1, FLT3 (Homo sapiens, UniProt P36888); test: In vitro kinase activity experiment, FLT3; assay type: biochemical; settings: 40 min; inhibition rate of enzyme at 500 nM; measured by Eurofins; read-out: Kinase activity @ 500 nM (%) FLT3
T1 construct: purchased Eurofins
T1 sequence (P36888 27-993): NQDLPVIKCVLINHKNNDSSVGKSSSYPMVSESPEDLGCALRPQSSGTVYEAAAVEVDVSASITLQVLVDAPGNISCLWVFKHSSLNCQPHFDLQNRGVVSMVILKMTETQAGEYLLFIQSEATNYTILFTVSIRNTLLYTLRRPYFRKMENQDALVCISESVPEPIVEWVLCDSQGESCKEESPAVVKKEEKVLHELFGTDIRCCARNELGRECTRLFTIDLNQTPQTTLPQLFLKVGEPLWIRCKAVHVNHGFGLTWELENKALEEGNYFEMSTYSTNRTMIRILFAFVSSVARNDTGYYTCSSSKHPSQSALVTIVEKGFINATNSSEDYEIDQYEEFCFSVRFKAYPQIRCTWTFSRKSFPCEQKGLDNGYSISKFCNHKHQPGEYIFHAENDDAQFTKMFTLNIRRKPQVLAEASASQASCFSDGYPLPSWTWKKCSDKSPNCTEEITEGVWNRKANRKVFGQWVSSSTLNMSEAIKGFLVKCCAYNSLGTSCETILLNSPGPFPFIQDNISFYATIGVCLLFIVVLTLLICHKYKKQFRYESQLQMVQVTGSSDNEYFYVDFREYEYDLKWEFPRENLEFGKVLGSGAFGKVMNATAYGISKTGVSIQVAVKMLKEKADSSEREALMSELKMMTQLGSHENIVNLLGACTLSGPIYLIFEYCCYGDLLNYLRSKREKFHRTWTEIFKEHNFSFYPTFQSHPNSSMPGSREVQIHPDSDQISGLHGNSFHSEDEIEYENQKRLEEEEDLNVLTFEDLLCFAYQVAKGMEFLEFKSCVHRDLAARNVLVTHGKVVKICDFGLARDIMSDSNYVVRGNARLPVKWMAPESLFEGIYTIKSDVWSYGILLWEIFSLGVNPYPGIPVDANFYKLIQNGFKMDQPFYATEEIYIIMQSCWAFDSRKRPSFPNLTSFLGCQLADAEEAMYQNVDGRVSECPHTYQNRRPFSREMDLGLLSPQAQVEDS
Protocol: (§4) Buffer solution ([…], pH 7.0, 0.2 mm EDTA, 10 mM mncl2), kinase to be tested, substrate of kinase to be tested, 10 mM magnesium acetate and γ33P-ATP solution, and compounds with different concentrations were added to a reaction tube in turn, then MgATP was added to initiate the enzyme reaction process, and incubated at room temperature for 40 min. Then, the reaction was terminated with 5 μl of […], and 10 μl of the reaction solution was titrated onto the Filtermat A membrane, washed with 75 mM phosphate solution for three times, each time for 5 min., and then washed with methanol once. Finally, the Filtermat A membrane was dried and the scintillation count was carried out.

[4] = molecular target: T2, JAK2 (Homo sapiens, UniProt O60674); test: In vitro kinase activity experiment, JAK2; assay type: biochemical; settings: inhibition rate of enzyme at 500 nM; measured by Eurofins
T2 construct: purchased Eurofins
Protocol: as §4

[5] = test system: SET-2 cells (JAK2 V617F); test: Inhibition of cell proliferation by MTT experiment, SET-2; assay type: cell-based; settings: Homo sapiens, SET-2; MTT, 72 h; read-out: IC50 value on cell proliferation inhibition, SET-2 (V617F)
From the text: as §1, §2, §3

T2 sequence (O60674 whole entry): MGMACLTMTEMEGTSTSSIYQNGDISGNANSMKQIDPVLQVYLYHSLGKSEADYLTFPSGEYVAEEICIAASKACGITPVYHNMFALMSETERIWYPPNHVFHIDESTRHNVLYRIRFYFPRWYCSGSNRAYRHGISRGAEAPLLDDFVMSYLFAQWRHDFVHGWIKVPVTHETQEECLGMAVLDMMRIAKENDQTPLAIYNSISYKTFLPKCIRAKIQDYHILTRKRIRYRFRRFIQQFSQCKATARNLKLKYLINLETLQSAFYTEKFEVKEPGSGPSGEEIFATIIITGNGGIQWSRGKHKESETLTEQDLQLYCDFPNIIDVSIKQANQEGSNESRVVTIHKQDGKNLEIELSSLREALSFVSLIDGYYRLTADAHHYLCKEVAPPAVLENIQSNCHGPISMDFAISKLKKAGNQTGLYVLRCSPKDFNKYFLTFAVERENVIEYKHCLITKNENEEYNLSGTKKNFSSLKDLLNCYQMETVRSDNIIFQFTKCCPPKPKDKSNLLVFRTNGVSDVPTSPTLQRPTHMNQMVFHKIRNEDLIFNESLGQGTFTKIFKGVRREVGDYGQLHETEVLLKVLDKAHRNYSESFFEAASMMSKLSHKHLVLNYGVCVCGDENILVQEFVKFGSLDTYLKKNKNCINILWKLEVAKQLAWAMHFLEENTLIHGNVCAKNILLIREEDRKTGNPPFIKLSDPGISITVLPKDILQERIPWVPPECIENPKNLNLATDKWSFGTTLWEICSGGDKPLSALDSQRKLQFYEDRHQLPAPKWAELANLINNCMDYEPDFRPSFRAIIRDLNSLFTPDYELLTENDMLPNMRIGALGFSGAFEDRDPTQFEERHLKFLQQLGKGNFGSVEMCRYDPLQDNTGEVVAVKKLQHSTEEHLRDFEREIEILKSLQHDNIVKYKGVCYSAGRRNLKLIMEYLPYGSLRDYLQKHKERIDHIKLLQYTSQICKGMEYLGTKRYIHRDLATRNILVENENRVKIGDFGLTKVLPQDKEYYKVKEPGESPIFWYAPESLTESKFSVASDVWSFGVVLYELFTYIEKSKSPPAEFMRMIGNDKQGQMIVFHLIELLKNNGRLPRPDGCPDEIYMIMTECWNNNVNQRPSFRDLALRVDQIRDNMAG

| Compound | IC50 [1] [nM] | IC50 [2] [nM] | inhibition at 0.5 µM [3] [%] | Kinase activity @ 500 nM (%) JAK2 [4] [%] | IC50 [5] [nM] |
| --- | --- | --- | --- | --- | --- |
| CCN1CCN(Cc2ccc(Nc3ncc(F)c(-c4cnn(C(C)C)c4)n3)nc2)CC1 [CLJ-21, 5-fluoro-N-(5-((4-ethylpiperazine-1-yl)methyl)pyridine-2-yl)-4-(1-isopropyl-1H-pyrazole-4-yl) pyrimidine-2-amine] | 100 to 1000 | 100 to 1000 | 75 | 89 | 100 to 1000 |
| CC(C)n1cc(-c2nc(Nc3ccc(N4CCCC4)c(F)c3)ncc2F)cn1 [CLJ-27, 5-fluoro-N-(3-fluoro-4-(pyrrolidine-1-yl)phenyl)-4-(1-isopropylpyrazol-4-yl) pyrimidine-2-amine] | 100 to 1000 | > 1000 | 24 | 34 | > 1000 |
| CCN1CCN(c2ccc(Nc3ncc(C)c(-c4cnn(C(C)C)c4)n3)cc2F)CC1 [CLJ-30] | 10 to 100 | 100 to 1000 | 96 | 89 | 100 to 1000 |
| CC(C)n1cc(-c2nc(Nc3ccc(N4CCN(C5CCN(C)CC5)CC4)c(F)c3)ncc2F)cn1 [CLJ-32, 5-fluoro-N-(3-fluoro-4-(4-(1-methylpiperidine-4-yl)piperazine-1-yl)phenyl)-4-(1-isopropyl-1H-pyrazole-4-yl) pyrimidine-2-amine] | 10 to 100 | 100 to 1000 | 95 | 90 | 100 to 1000 |
| CC(C)n1cc(-c2nc(Nc3ccc(N4CCC(N5CCCCC5)CC4)c(F)c3)ncc2F)cn1 [CLJ-33] | > 1000 | > 1000 | 23 | 34 | > 1000 |
| Cc1nn(C(C)C)cc1-c1nc(Nc2ccc(N3CCN(C)CC3)c(F)c2)ncc1F [CLJ-34] | 10 to 100 | 100 to 1000 | 95 | 93 | 100 to 1000 |
| Cc1c(-c2nc(Nc3ccc(N4CCN(C)CC4)c(F)c3)ncc2F)cnn1C(C)C [CLJ-35] | 10 to 100 | 100 to 1000 | 91 | 92 | 100 to 1000 |
| CC(C)n1cc(-c2nc(Nc3ccc(N4CCC(N(C)C)CC4)c(F)c3)ncc2F)cn1 [CLJ-36, 5-fluoro-N-(3-fluoro-4-(4-dimethylaminopiperidine-1-yl)phenyl)-4-(1-isopropyl-1H-pyrazole-4-yl) pyrimidine-2-amine] | 10 to 100 | 10 to 100 | 99 | 97 | 100 to 1000 |
| COc1cc(Nc2ncc(F)c(-c3cnn(C(C)C)c3)n2)ccc1N1CCC(N(C)C)CC1 [CLJ-37, 5-fluoro-N-(3-methoxy-4-(4-dimethylaminopiperidine-1-yl)phenyl)-4-(1-isopropyl-1H-pyrazole-4-yl) pyrimidine-2-amine] | 10 to 100 | 100 to 1000 | 97 | 98 | 100 to 1000 |
| COc1cc(Nc2ncc(C)c(-c3cnn(C(C)C)c3)n2)ccc1N1CCC(N(C)C)CC1 [CLJ-39, 5-methyl-N-(3-methoxy-4-(4-dimethylaminopiperidine-1-yl)phenyl)-4-(1-isopropyl-1H-pyrazole-4-yl) pyrimidine-2-amine] | 10 to 100 | 100 to 1000 | 90 | 94 | 100 to 1000 |

More lines, main results first:

| IC50 [1] [nM] | IC50 [2] [nM] | inhibition at 0.5 µM [3] [%] | Kinase activity @ 500 nM (%) JAK2 [4] [%] | Compound | IC50 [5] [nM] |
| --- | --- | --- | --- | --- | --- |
| 10 to 100 | 100 to 1000 | 95 | 92 | CC(C)n1cc(-c2nc(Nc3cccc(N4CCN(C)CC4)c3)ncc2F)cn1 [CLJ-19, 5-fluoro-N-(3-(4-methylpiperazine-1-yl)phenyl)-4-(1-isopropyl-1H-pyrazol-4-yl) pyrimidine-2-amine] | 100 to 1000 |
| 100 to 1000 | 100 to 1000 | 95 | 97 | CCCCN1CCN(c2ccc(Nc3ncc(F)c(-c4cnn(C(C)C)c4)n3)nc2)CC1 [CLJ-20, 5-fluoro-N-(5-(4-butylpiperazine-1-yl)pyridine-2-yl)-4-(1-isopropyl-1H-pyrazole-4-yl) pyrimidine-2-amine] | 100 to 1000 |
| 100 to 1000 | 100 to 1000 | 80 | 79 | CC(C)n1cc(-c2nc(Nc3ccc(N4CCN(C)CC4)cc3)ncc2F)cn1 [CLJ-22, 5-fluoro-N-(4-(4-methylpiperazine-1-yl)phenyl)-4-(1-isopropyl-1H-pyrazol-4-yl) pyrimidine-2-amine] | 100 to 1000 |
| 100 to 1000 | > 1000 | 40 | 49 | CC(C)n1cc(-c2nc(Nc3ccc(N4CCN(C)CC4)cc3F)ncc2F)cn1 [CLJ-23, 5-fluoro-N-(2-fluoro-4-(4-methylpiperazine-1-yl)phenyl)-4-(1-isopropyl-1H-pyrazol-4-yl) pyrimidine-2-amine] | 100 to 1000 |
| 100 to 1000 | > 1000 | 32 | 28 | CC(C)n1cc(-c2nc(Nc3ccc(N4CCN(C)CC4)c(F)c3)ncc2F)cn1 [CLJ-24, 5-fluoro-N-(3-fluoro-4-(4-methylpiperazine-1-yl)phenyl)-4-(1-isopropyl-1H-pyrazol-4-yl) pyrimidine-2-amine] | > 1000 |
| > 1000 | > 1000 | 30 | 19 | CCN1CCN(c2ccc(Nc3ncc(F)c(-c4cnn(C(C)C)c4)n3)cc2F)CC1 [CLJ-26, 5-fluoro-N-(3-fluoro-4-(4-ethylpiperazine-1-yl)phenyl)-4-(1-isopropyl-1H-pyrazole-4-yl) pyrimidine-2-amine] | > 1000 |
| > 1000 | > 1000 | 21 | 25 | COc1cc(Nc2ncc(F)c(-c3cnn(C(C)C)c3)n2)ccc1N1CCN(C)CC1 [CLJ-28, 5-fluoro-N-(3-methoxy-4-(4-methylpiperazine-1-yl)phenyl)-4-(1-isopropyl-1H-pyrazol-4-yl) pyrimidine-2-amine] | > 1000 |
| > 1000 | > 1000 | 18 | 25 | CC(C)n1cc(-c2nc(Nc3ccc(N4CCN(C5CCN(C)CC5)CC4)cc3)ncc2F)cn1 [CLJ-31, 5-fluoro-N-(4-(4-(1-methylpiperidine-4-yl)piperazine-1-yl)phenyl)-4-(1-isopropyl-1H-pyrazole-4-yl) pyrimidine-2-amine] | > 1000 |
